Results on 1 molecule are retold here after US4029801A, “Pharmaceutical compositions and methods of treating hypertension” (priority 1970, dated 1977).

Data set [1] deals with T1, histamine (Cavia porcellus, UniProt P31389).
T1 construct: from tissue
Briefly: Antihistamine activity by the method of Alps et al. The settings on record: Table 4; read-out: Antihistamine pA2 (converted).

The subject of data set [2] is mouse. As to the kind of experiment: Acute toxicity (LD50) in the mouse. The settings on record: result in words.
Data set [3] is described as follows: Acute toxicity (LD50) in the mouse. To be noted: in vivo.
Data set [4] has as its system α-adrenoceptor. As to the kind of experiment: α-Adrenoceptor antagonism on the guinea pig aortic strip. From the text: Carried out on the guinea pig aortic strip [Furchgott and Bhadrakom (1953) J. Pharmac. exp. Ther. 108, 129-143] by the method of Alps et al [Br. J. Pharmac. 1972 44, 52-62].
For data set [5], the system named is blood pressure and heart rate. Briefly: Method 1 (rat): hypotensive activity in anaesthetised rats, i.v. The settings on record: Rattus norvegicus, iv, 0.25 h, read-out: Hypotensive Activity.
Procedure: Rats were anaesthetised with pentobarbitone sodium (60 mg/kg) and the jugular vein, trachea and carotid artery were cannulated. […] A decrease in heart rate of more than 30% from control values was considered to be significant bradycardia.
Data set [6] relates to blood pressure. As to the kind of experiment: Tests for action on the cardiovascular system: hypotensive activity (activity in method 1, rats or cats, or method 2), reported in words. The format is in vivo, rat, cat. To be noted: standard test procedure, result in words. Summed up: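 Method 1: pentobarbitone-anaesthetised cats, test compounds i.v. at 0.1-25.6 mg/kg, aortic blood pressure, heart rate and left ventricular pressure recorded. Method 2: renal hypertensive rats (figure-8 ligature plus contralateral nephrectomy, 6 weeks), dosed IP or orally; systolic pressure by tail plethysmography before and 2 and 24 h post-dose versus controls.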

T1 sequence (P31389 whole entry): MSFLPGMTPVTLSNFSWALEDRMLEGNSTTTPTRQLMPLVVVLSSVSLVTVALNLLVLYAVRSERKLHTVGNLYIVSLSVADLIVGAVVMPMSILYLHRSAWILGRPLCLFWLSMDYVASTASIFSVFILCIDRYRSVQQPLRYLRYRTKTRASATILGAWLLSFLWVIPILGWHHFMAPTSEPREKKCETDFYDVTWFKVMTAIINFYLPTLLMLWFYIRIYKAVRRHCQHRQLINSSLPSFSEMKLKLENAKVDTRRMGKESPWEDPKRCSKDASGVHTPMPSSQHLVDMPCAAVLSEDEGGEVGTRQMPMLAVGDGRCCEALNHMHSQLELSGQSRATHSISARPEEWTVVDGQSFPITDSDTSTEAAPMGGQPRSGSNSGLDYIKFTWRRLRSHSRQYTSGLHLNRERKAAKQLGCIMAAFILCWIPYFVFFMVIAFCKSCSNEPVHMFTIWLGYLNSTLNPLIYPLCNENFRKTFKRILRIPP

Regarding `O=C(CCCN1CCC(NC(=O)c2ccccc2)CC1)c1ccc(O)cc1` [Example 63, 4-Benzamido-1-[4-(4-hydroxyphenyl)-4-oxobutyl]piperidine], in data set [1], the Kb was 1.26 nM. In data set [2], the toxicity result is listed as “remarkably low toxicity”. In data set [3] (ip), this molecule had an LD50 of 1630 mg/kg and an LD50 at 24 h greater than 4000 mg/kg. In data set [3] (po), this molecule registered an LD50 greater than 4000 mg/kg. For the same molecule, the “α-blockade pA2” value in data set [4] (Table 4) is listed as 7.0. For the same molecule, the α-adrenoceptor antagonism entry in data set [4] (result in words) is recorded as “α-adrenoceptor antagonism”. In data set [5], the minimal effective dose amounted to 25.6 mg/kg. For the same molecule, the hypotensive activity result in data set [6] is given as “good hypotensive activity”.

One may read the LD50 as the dose expected to kill half of the subjects tested.
